{"source": "paper PMC6340882", "about": "“Targeting protein kinase CK2 and CDK4/6 pathways with a multi-kinase inhibitor ON108110 suppresses pro-survival signaling and growth in mantle cell lymphoma and T-acute lymphoblastic leukemia” (Oncotarget, 2018)", "key": {"CDK6": {"biological_target": "CDK6 (Homo sapiens, UniProt Q00534)", "sequence (Q00534 whole entry)": "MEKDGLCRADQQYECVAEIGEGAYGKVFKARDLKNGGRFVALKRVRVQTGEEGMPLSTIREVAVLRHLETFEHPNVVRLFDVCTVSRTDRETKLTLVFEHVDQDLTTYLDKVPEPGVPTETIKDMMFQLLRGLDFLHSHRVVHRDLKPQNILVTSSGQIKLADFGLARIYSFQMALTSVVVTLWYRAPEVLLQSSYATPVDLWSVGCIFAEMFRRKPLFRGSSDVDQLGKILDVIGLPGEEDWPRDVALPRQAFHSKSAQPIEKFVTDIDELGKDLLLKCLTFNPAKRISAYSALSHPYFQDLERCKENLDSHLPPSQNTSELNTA", "sequence (P24385 whole entry partner)": "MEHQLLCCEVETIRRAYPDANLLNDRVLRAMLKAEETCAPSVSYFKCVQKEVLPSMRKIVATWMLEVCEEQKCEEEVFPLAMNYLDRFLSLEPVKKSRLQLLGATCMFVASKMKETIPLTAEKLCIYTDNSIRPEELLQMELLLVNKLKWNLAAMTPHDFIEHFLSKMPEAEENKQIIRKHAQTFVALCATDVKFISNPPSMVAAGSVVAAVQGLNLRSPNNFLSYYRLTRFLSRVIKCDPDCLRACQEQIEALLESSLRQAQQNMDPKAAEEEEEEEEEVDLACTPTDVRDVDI", "assay": "In vitro kinase assay with recombinant protein (32P-ATP, filtermat)", "assay_type": "biochemical", "conditions": "recombinant CDK6, independent in vitro kinase assay, 20μM ATP", "protocol": "Figure 1 ON108110 is a multi-kinase inhibitor (A) Structure of the ON108XXO benzo thiazolidinnes chemotype. (B) Structure of ON108110. (C) Calculation of IC50 values against CDK4 and CDK6 and (D) CK2α1 and CK2α2 by ON108110. Recombinant proteins were incubated with the indicated concentrations of ON108110 and subjected to in vitro kinase assays as described in the materials and methods section. Values obtained were plotted as a function of log drug concentration. IC50 values were determined by performing sigmoidal non-linear regression with a variable slope.\nInitial testing of ON108110 against a panel of 285 functional kinases was performed by Reaction Biology Corp (Malvern, PA). Recombinant CDK4/CYCLIN D1 or CK2α1 were mixed with their respective synthetic peptide substrates (10ng) and incubated with DMSO or increasing concentrations of ON108110 in 20μl kinase buffer [50mM Tris-HCl (pH 7.5), 10mM MgCl2, 1mM EGTA, 2mM DTT and 0.01% NP-40] for 30 min. at room temperature. Kinase reactions were carried out for 20 min at 30°C in the presence of 5μl of substrate-ATP mixture (1μg RB, 20μM ATP, 20μCi γ-^32P-ATP). […] The filtermat was then air-dried and analyzed using a phosphoimager. Densitometric values were plotted as a function of log drug concentration using Prism 4 GraphPad software and the IC50 values determined by plotting sigmoidal non-linear regression curves with variable slope (n=3)."}, "Granta-519 and CEM cells": {"test_system": "Granta-519 and CEM cells", "assay": "Cell cycle analysis, propidium iodide staining and flow cytometry", "assay_type": "cell-based, human", "conditions": "0.5-2.0μM, 24 hours", "protocol": "Figure 5 Modulation of cell cycle expression and induction of apoptosis in ON 108110-treated MCL and T-ALL cell lines (A) CEM and Granta-519 cells were treated with either DMSO or increasing concentrations of ON108110 (0.5-2.0μM) for 24 hours. Cell cycle analysis was performed using propidium iodide staining. (B) CEM, HBL-2, RS4-11 and Granta-519 cells were treated with either DMSO (vehicle) or increasing concentrations of ON108110 (0.5-2.0 μM) for 24 hours and stained with Annexin V/DAPI (C) Graphical representation of apoptosis induced as shown in B. (D) Granta-519 cells were treated with increasing concentrations of ON108110 for 24 hours. Caspase activation and viability were measured using the Caspase Glo 3/7 and Cell Titer Blue assay kits, respectively. […]\nTo determine cell cycle distribution, 70% ethanol fixed cells were washed with phosphate buffered saline (PBS), resuspended in PBS and incubated with RNase and propidium iodide at 37°C for 20 min. DNA content was analyzed on a FACS Calibur (BD Immunocytometry Systems) and the data analyzed using Flowjo software (Treestar). Annexin V staining was measured using the FITC Annexin V Apoptosis Detection Kit I (BD Biosciences) according to the instructions of the manufacturer except that DAPI was substituted at a concentration of […] to measure DNA content."}, "[1]": {"biological_target": "T1, recombinant CK2α1 kinase domain (Homo sapiens, UniProt P68400)", "T1 construct": "Amino acid residues 3-335 of CK2α1 were cloned using BamH1 and HindIII into pET28bsmt3-SUMO fusion vector; His6 (N, cleaved yes); SUMO (N, cleaved yes); made in house; host or cells: Escherichia coli BL21-DE3 (RIL)", "T1 sequence (P68400 3-335)": "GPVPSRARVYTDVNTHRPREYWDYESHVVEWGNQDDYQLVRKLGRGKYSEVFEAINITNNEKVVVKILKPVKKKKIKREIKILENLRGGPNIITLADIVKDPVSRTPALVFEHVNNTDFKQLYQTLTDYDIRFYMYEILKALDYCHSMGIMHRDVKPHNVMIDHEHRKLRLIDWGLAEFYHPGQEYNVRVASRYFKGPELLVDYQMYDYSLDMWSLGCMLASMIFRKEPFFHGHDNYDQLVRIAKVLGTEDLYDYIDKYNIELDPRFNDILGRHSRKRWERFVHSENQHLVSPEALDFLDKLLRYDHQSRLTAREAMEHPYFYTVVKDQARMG", "assay": "Differential scanning fluorimetry (DSF)", "assay_type": "binding", "conditions": "apo protein Tm 58°C", "protocol": "1μM of in-house purified recombinant CK2α1 was diluted in protein buffer and added to a final concentration of 1X of Sypro Orange Dye in the presence of DMSO or increasing concentrations of ON108110. Following a 20 min incubation at room temperature, 20μl samples were pipetted into a clear MicroAmp Fast 96-well Reaction PCR plates and sealed with MicroAmp Optical Adhesive Film. The assay was performed using a StepOne Plus RT-PCR instrument (Applied Biosystems) using an increasing temperature gradient of 20 to 90°C in 0.2°C increments using a 200- millisecond stabilization delay. Florescence readings were acquired with excitation and emission wavelengths of 580±10 nm and 624±14 nm respectively. A customized analysis program (Step One Plus Protein Thermal Shift Software) was used to calculate the Tm from each fluorescence profile (Boltzmann method) and the Tm of the fluorescence (derivative method). Derivative Tm values were obtained from the top of the peak in the derivative plot, while the Boltzmann Tm values calculated from the inflection point of the fluorescence plot."}}}
{"smiles": "CC(=O)Oc1ccc(/C=C2\\Sc3ccc(F)cc3NC2=O)cc1[N+](=O)[O-]", "note": "[ON108110]", "values": [{"measurement": "IC50", "setting": "CDK6", "value": 10, "unit": "nM"}, {"measurement": "effect on cell cycle progression", "setting": "Granta-519 and CEM cells", "value": "rapid accumulation of the cells in the G1 phase"}, {"measurement": "melting temperature (Tm) of CK2α1 with compound", "setting": "[1]", "value": 64.8, "unit": "°C"}, {"measurement": "shift in the Tm of CK2α1", "setting": "[1]", "value": 6.8, "unit": "°C"}]}
